Measured values from patent US8202513B2, “Aryl potassium channel blockers and uses thereof” (Bionomics Limited, priority 2007, dated 2012).

Molecular target: T1, human Kv1.3 ion channel (Homo sapiens, UniProt P22001)
T1 construct: Human Jurkat cells (which endogenously express hKv1.3) or Chinese Hamster Ovary (CHO) cells stably transfected with hKv1.3 were used; endogenous in cells; host or cells: Human Jurkat cells (endogenous) or CHO cells stably transfected with hKv1.3
Assay: Inhibition of Kv1.3 currents, planar patch clamp
Assay type: cell-based
Settings: Human Jurkat cells or CHO cells stably transfected with hKv1.3; averaged dose response data from 3 or more cells
Method: Potency of compounds to inhibit the human Kv1.3 ion channel was determined as follows:
EC50 values for inhibition of Kv1.3 currents were determined by the method according to Schmitz et al (2005) Molecular Pharmacology 68, 1254-1270 with the following differences: • 1. Human Jurkat cells (which endogenously express hKv1.3) or Chinese Hamster Ovary (CHO) cells stably transfected with hKv1.3 were used in place of transfected rat L929 cells. • 2. All electrophysiology was performed using planar patch clamp (Port-A-Patch, Nanion Technologies Gmbh, Munich) in contrast to conventional patch clamp. • 3. EC50 values shown were determined from averaged dose response data obtained from 3 or more cells.

T1 sequence (P22001 whole entry): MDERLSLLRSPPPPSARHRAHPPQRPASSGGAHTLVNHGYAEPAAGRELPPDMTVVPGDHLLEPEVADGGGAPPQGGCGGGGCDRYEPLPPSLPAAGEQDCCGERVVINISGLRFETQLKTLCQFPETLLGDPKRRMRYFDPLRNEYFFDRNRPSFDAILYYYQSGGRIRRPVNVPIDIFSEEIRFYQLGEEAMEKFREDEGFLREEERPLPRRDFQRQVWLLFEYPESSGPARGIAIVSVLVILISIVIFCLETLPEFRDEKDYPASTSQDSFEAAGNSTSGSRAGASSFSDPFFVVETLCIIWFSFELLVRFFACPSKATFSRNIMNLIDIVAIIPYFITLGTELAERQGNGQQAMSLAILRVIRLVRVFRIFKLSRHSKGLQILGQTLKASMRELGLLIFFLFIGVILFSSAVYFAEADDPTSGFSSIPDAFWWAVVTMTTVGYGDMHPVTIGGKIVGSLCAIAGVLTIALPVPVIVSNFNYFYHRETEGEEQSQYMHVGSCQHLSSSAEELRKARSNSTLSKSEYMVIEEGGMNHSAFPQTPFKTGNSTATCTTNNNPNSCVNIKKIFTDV

SMILES | EC50 [nM]
CC(=O)c1c(O)cccc1OCCCCOc1ccccc1 [reference compound] | > 300
COc1c(Cl)c(C)c(C(C)=O)c(OCCCN2CC[S+]([O-])CC2)c1OCCC(C)c1ccc(F)cc1 (stereo not shown) [Example 24, 1-{3-Chloro-5-[3-(4-fluoro-phenyl)-butoxy]-4-methoxy-2-methyl-6-[3-(1-oxo-thiomorpholin-4-yl)-propoxy]-phenyl}-ethanone] | 50 to 150
COc1cc(C)c(C(C)=O)c(OCCN2CCOCC2)c1OCCCc1ccccc1 [Example 33b, 1-[4-Methoxy-6-methyl-2-(2-morpholin-4-yl-ethoxy)-3-(3-phenyl-propoxy)-phenyl]-ethanone] | 150 to 300
COc1c(C)c(C)c(C(C)=O)c(OCCc2ccccn2)c1OCCC(C)c1ccc(F)cc1 (stereo not shown) [Example 4f, 1-[3-[3-(4-Fluoro-phenyl)-butoxy]-4-methoxy-5,6-dimethyl-2-(2-pyridin-2-yl-ethoxy)-phenyl]-ethanone] | < 50
COc1c(Cl)c(C)c(C(C)=O)c(OCCn2cncn2)c1OCCC(C)c1ccc(F)cc1 (stereo not shown) [Example 19, 1-[3-Chloro-5-[3-(4-fluorophenyl)-butoxy]-4-methoxy-2-methyl-6-(2-[1,2,4]-triazol-1-yl-ethoxy)-phenyl]-ethanone] | 50 to 150
COc1cc(OCCCCOc2ccccc2)c(C(C)=O)c(OCCN2CCOCC2)c1 [reference compound] | > 300
CCCc1c(NCC)ccc(C(C)=O)c1OCCCc1ccccc1 [reference compound] | > 300
COc1c(Cl)c(C)c(C(C)=O)c(OCCN2CCCC(F)(F)C2)c1OCCC(C)c1ccc(F)cc1 (stereo not shown) [Example 17, 1-{3-Chloro-6-[2-(3,3-difluoro-piperidin-1-yl)-ethoxy]-5-[3-(4-fluoro-phenyl)-butoxy]-4-methoxy-2-methyl-phenyl}-ethanone] | < 50
COc1c(Cl)c(C)c(C(C)=O)c(OCCNC2CCCC2)c1OCCCc1ccc(F)cc1 [Example 2, 1-(3-Chloro-6-(cyclopentylamino)ethoxy)-5-(3-(4-fluorophenyl)propoxy-4-methoxy-2-methylphenyl)ethanone] | < 50
COc1c(Cl)c(C)c(C(C)=O)c(OCCN2CCC(O)CC2)c1OCCC(C)c1ccc(F)cc1 (stereo not shown) [Example 14, 1-{3-Chloro-5-[3-(4-fluoro-phenyl)-butoxy]-6-[2-(4-hydroxy-piperidin-1-yl)-ethoxy]-4-methoxy-2-methyl-phenyl}-ethanone] | 50 to 150
COc1c(Cl)c(C)c(C(C)=O)c(OCc2ccccn2)c1OCCC(C)c1ccc(F)cc1 (stereo not shown) [Example 13, 1-[3-Chloro-5-[3-(4-fluoro-phenyl)-butoxy]-4-methoxy-2-methyl-6-(pyridin-2-ylmethoxy)-phenyl]-ethanone] | 150 to 300
COc1c(Cl)c(C)c(C(C)=O)c(OCCNC2CCCC2)c1OCCC(C)c1ccc(F)cc1 (stereo not shown) [Example 9, 1-[3-Chloro-6-(2-cyclopentylamino-ethoxy)-5-[3-(4-fluoro-phenyl)-butoxy]-4-methoxy-2-methyl-phenyl]-ethanone] | 50 to 150
COc1c(Cl)c(C)c(C(C)=O)c(OCCCN2CCOCC2)c1OCCC(C)c1ccc(F)cc1 (stereo not shown) [Example 22b, 1-[3-Chloro-5-[3-(4-fluoro-phenyl)-butoxy]-4-methoxy-2-methyl-6-(3-morpholin-4-yl-propoxy)-phenyl]-ethanone] | < 50
COc1ccc(C(C)=O)c(NC(=O)CCc2ccccc2)c1 [reference compound] | > 300
COc1c(Cl)c(C)c(C(C)=O)c(OCCOc2cnccn2)c1OCCC(C)c1ccc(F)cc1 (stereo not shown) [Example 18b, 1-{3-Chloro-5-[3-(4-fluoro-phenyl)-butoxy]-4-methoxy-2-methyl-6-[2-(pyrazin-2-yloxy)-ethoxy]-phenyl}-ethanone] | < 50
COc1c(C)c(C)c(C(C)=O)c(OCCN2CCOCC2)c1OCCC(C)c1ccc(F)cc1 (stereo not shown) [Example 5, 1-[3-[3-(4-Fluoro-phenyl)-butoxy]-4-methoxy-5,6-dimethyl-2-(2-morpholin-4-yl-ethoxy)-phenyl]-ethanone] | < 50
